Source: US7612113B2, “Hydroxy tetrahydro-naphthalenylurea derivatives” (Xention Limited, priority 2002, dated 2009)
Like-named read-outs stand apart in the source and are kept apart here.

What was measured:
[1] = molecular target: T1, human VR1 (Homo sapiens, UniProt Q8NER1); assay: capsaicin-induced Ca2+ influx in the human VR1-transfected CHO cell line (Assay 1); assay type: cell-based; conditions: 10 nM capsaicin, human VR1-CHOluc9aeq cells
T1 construct: expressed in transfected cells
Description: [Measurement of capsaicin-induced Ca^2+ influx in the human VR1-transfected CHO cell line] (Assay 1)
• (1) Establishment of the Human VR1-CHOluc9aeq Cell Line • Human vanilloid receptor (hVR1) cDNA was cloned from libraries of axotomized dorsal root ganglia (WO 00/29577). The cloned hVR1 cDNA was constructed with pcDNA3 vector and transfected into a CHOluc9aeq cell line. The cell line contains aequorin and CRE-luciferase reporter genes as read-out signals. The transfectants were cloned by limiting dilution in selection medium (DMEM/F12 medium (Gibco BRL) supplemented with 10% FCS, 1.4 mM Sodium pyruvate, 20 mM HEPES, 0.15% Sodium bicarbonate, 100 U/ml penicillin, 100 μg/ml streptomycin, 2 mM glutamine, non-essential amino acids and 2 mg/ml G418). Ca^2+ influx was examined in the capsaicin-stimulated clones. A high responder clone was selected and used for further experiments in the project. The human VR1-CHOluc9aeq cells were maintained in the selection medium and passaged every 3-4 days at 1-2.5×10^5 cells/flask ([…]). • (2) Measurement of Ca^2+ Influx Using FDSS-3000 • Human VR1-CHOluc9aeq cells were suspended in a culture medium which is the same as the selection medium except for G418 and seeded at a density of 1,000 cells per well into 384-well plates (black walled clear-base/Nalge Nunc International). Following the culture for 48 hrs the medium was changed to 2 μM Fluo-3 AM (Molecular Probes) and 0.02% Puronic F-127 in assay buffer (Hank's balanced salt solution (HBSS), 17 mM HEPES (pH7.4), 1 mM Probenecid, 0.1% BSA) and the cells were incubated for 60 min at. 25° C. After washing twice with assay buffer the cells were incubated with a test compound or vehicle for 20 min at 25° C. Mobilization of cytoplasmic Ca^2+ was measured by FDSS-3000 (λex=488 nm, λem=540 nm/Hamamatsu Photonics) for 60 sec after the stimulation with 10 nM capsaicin. Integral R was calculated and compared with controls. [Measurement of the Capsaicin-Induced Ca^2+ Influx in Primary Cultured Rat Dorsal Root Ganglia Neurons] (Assay 2) • (1) Preparation of Rat Dorsal Root Ganglia Neurons • New born Wister rats (5-11 days) were sacrificed and dorsal root ganglia (DRG) was removed. DRG was incubated with 0.1% trypsin (Gibco BRL) in PBS(−) (Gibco BRL) for 30 min at 37° C., then a half volume of fetal calf serum (FCS) was added and the cells were spun down. The DRG neuron cells were resuspended in Ham F12/5% FCS/5% horse serum (Gibco BRL) and dispersed by repeated pipetting and passing through 70 μm mesh Falcon). The culture plate was incubated for 3 hours at 37° C. to remove contaminating Schwann cells. Non-adherent cells were recovered and further cultured in laminin-coated 384 well plates (Nunc) at 1×10^4 cells/50 μl/well for 2 days in the presence of 50 ng/ml recombinant rat NGF (Sigma) and 50 μM 5-fluorodeoxyuridine (Sigma). • (2) Ca^2+ Mobilization Assay • DRG neuron cells were washed twice with HBSS supplemented with 17 mM HEPES (pH 7.4) and 0.1% BSA. After incubating with 2 μM fluo-3AM (Molecular Probe), 0.02% PF127 (Gibco BRL) and 1 mM probenecid (Sigma) for 40 min at 37° C., cells were washed 3 times. The cells were incubated with VR1 antagonists or vehicle (dimethylsulphoxide) and then with 1 μM capsaicin in FDSS-6000 (λex=480 nm, λem=520 nm/Hamamatsu Photonics). The fluorescence changes at 480 nm were monitored for 2.5 min. Integral R was calculated and compared with controls. [Organ Bath Assay to Measure the Capsaicin-Induced Bladder Contraction] (Assay 3)
The data corresponds to the compounds as yielded by solid phase synthesis and thus to levels of purity of about 40 to 90%. For practical reasons, the compounds are grouped in four classes of activity as follows: IC50=A(<or=)0.1 μM<B(<or=)0.5 μM<C(<or=)1 μM<D

[2] = Table 1, read-out: activity class
[3] = read-out: In vitro activity class
[4] = Table 3, read-out: activity class

T1 sequence (Q8NER1 whole entry): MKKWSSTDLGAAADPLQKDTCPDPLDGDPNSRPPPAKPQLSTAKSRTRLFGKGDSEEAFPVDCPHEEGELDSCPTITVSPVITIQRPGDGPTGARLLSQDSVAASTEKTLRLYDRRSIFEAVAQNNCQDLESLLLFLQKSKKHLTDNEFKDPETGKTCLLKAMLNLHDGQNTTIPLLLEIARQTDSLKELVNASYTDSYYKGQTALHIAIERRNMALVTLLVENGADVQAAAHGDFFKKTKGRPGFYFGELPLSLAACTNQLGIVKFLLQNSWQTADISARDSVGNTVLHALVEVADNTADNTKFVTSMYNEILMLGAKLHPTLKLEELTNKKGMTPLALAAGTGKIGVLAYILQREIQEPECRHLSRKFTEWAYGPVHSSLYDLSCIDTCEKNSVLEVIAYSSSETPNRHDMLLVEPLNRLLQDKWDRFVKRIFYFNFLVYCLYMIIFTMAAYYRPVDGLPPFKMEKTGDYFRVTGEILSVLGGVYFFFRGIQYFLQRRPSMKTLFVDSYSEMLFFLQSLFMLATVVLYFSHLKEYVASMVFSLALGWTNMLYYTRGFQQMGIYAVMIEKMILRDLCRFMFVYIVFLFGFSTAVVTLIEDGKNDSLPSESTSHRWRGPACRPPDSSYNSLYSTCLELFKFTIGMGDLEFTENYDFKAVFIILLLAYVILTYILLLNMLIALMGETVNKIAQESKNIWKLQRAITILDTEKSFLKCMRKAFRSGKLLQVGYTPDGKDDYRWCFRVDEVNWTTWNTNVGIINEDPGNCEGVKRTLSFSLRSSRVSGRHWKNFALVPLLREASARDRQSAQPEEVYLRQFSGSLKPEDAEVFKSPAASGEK

SMILES	melting point [°C]	IC50 [1, 2] [nM]	IC50 [1, 3] [nM]	IC50 [1, 4] [nM]
O=C(Nc1ccc(Cl)c(C(F)(F)F)c1)Nc1cccc2c1CC(O)CC2 (centres unmarked) [Example 1-1, N-[4-chloro-3-(trifluoromethyl)phenyl]-N′-(7-hydroxy-5,6,7,8-tetrahydro-1-naphthalenyl)urea]	227 to 228			
O=C(Nc1ccccc1Cl)Nc1cccc2c1CC(O)CC2 (centres unmarked) [Example 2-2]	197 to 199	100 to 500		
O=C(Nc1cccc(Cl)c1)Nc1cccc2c1CC(O)CC2 (centres unmarked) [Example 2-3]	216 to 218	< 100		
O=C(Nc1ccc(Cl)cc1)Nc1cccc2c1CC(O)CC2 (centres unmarked) [Example 2-4]	229 to 231	< 100		
COc1cccc(NC(=O)Nc2cccc3c2CC(O)CC3)c1 (centres unmarked) [Example 2-5]	187 to 189	100 to 500		
COc1ccc(NC(=O)Nc2cccc3c2CC(O)CC3)cc1 (centres unmarked) [Example 2-6]	213 to 215	> 1000		
O=C(Nc1ccccc1C(F)(F)F)Nc1cccc2c1CC(O)CC2 (centres unmarked) [Example 2-7]	217 to 219	500 to 1000		
O=C(Nc1cccc(C(F)(F)F)c1)Nc1cccc2c1CC(O)CC2 (centres unmarked) [Example 2-8]	227 to 228	< 100		
O=C(Nc1ccc(C(F)(F)F)cc1)Nc1cccc2c1CC(O)CC2 (centres unmarked) [Example 2-9]	222 to 224	< 100		
CCOC(=O)c1ccccc1NC(=O)Nc1cccc2c1CC(O)CC2 (centres unmarked) [Example 2-10]	178 to 180	> 1000		
CCOC(=O)c1cccc(NC(=O)Nc2cccc3c2CC(O)CC3)c1 (centres unmarked) [Example 2-11]	176 to 178	< 100		
CCOC(=O)c1ccc(NC(=O)Nc2cccc3c2CC(O)CC3)cc1 (centres unmarked) [Example 2-12]	204 to 206	< 100		
O=C(Nc1cccc2c1CC(O)CC2)Nc1cccc2ccccc12 (centres unmarked) [Example 2-13]	250 to 252	< 100		
O=C(Nc1ccc2ccccc2c1)Nc1cccc2c1CC(O)CC2 (centres unmarked) [Example 2-14]	212 to 214	< 100		
O=C(Nc1ccc(F)cc1)Nc1cccc2c1CC(O)CC2 (centres unmarked) [Example 2-15]	214 to 216	100 to 500		
O=C(Nc1ccc(Br)cc1)Nc1cccc2c1CC(O)CC2 (centres unmarked) [Example 2-16]	237 to 239	< 100		
O=C(Nc1ccc(Cl)c(Cl)c1)Nc1cccc2c1CC(O)CC2 (centres unmarked) [Example 2-17]	234 to 235	< 100		
Cc1cccc(NC(=O)Nc2cccc3c2CC(O)CC3)c1 (centres unmarked) [Example 2-18]	198 to 200	100 to 500		
CC(C)c1ccc(NC(=O)Nc2cccc3c2CC(O)CC3)cc1 (centres unmarked) [Example 2-19]	186 to 188	< 100		

SMILES	melting point [°C]	IC50 [1, 2] [nM]	IC50 [1, 3] [nM]	IC50 [1, 4] [nM]
O=C(Nc1ccc(Oc2ccccc2)cc1)Nc1cccc2c1CC(O)CC2 (centres unmarked) [Example 2-20]	188 to 190	< 100		
CN(C)c1ccc(NC(=O)Nc2cccc3c2CC(O)CC3)cc1 (centres unmarked) [Example 2-21]	206 to 207	> 1000		
O=C(NCc1ccccc1)Nc1cccc2c1CC(O)CC2 (centres unmarked) [Example 2-22]	198 to 200	100 to 500		
Cc1ccccc1CNC(=O)Nc1cccc2c1CC(O)CC2 (centres unmarked) [Example 2-23]	224 to 226	100 to 500		
Cc1cccc(CNC(=O)Nc2cccc3c2CC(O)CC3)c1 (centres unmarked) [Example 2-24]	194 to 196	100 to 500		
Cc1ccc(CNC(=O)Nc2cccc3c2CC(O)CC3)cc1 (centres unmarked) [Example 2-26]	230 to 232	< 100		
O=C(NCc1ccccc1F)Nc1cccc2c1CC(O)CC2 (centres unmarked) [Example 2-27]	184 to 187	100 to 500		
O=C(NCc1cccc(F)c1)Nc1cccc2c1CC(O)CC2 (centres unmarked) [Example 2-28]	193 to 194	100 to 500		
O=C(NCc1ccc(F)cc1)Nc1cccc2c1CC(O)CC2 (centres unmarked) [Example 2-29]	218 to 221	< 100		
O=C(NCc1ccccc1Cl)Nc1cccc2c1CC(O)CC2 (centres unmarked) [Example 2-30]	213 to 215	100 to 500		
COc1ccc(CNC(=O)Nc2cccc3c2CC(O)CC3)cc1 (centres unmarked) [Example 2-31]	209 to 211	100 to 500		
O=C(NCCc1ccccc1)Nc1cccc2c1CC(O)CC2 (centres unmarked) [Example 2-32]	161 to 163	500 to 1000		
CCNC(=O)Nc1cccc2c1CC(O)CC2 (centres unmarked) [Example 2-33]	216 to 217	> 1000		
O=C(Nc1ccccc1)Nc1cccc2c1CC(O)CC2 (centres unmarked) [Example 2-34]	198 to 199	500 to 1000		
O=C(Nc1ccc(Cl)c(C(F)(F)F)c1)Nc1ccc(Br)c2c1CC(O)CC2 (centres unmarked) [Example 2-38]	234 to 235	< 100		
Cc1ccc(NC(=O)Nc2ccc(Cl)c(C(F)(F)F)c2)c2c1CCC(O)C2 (centres unmarked) [Example 2-39]	219 to 220	< 100		
CN(C(=O)Nc1ccc(Cl)c(C(F)(F)F)c1)c1cccc2c1CC(O)CC2 (centres unmarked) [Example 2-40]	136 to 137	100 to 500		
CC1(O)CCc2cccc(NC(=O)Nc3ccc(Cl)c(C(F)(F)F)c3)c2C1 (centres unmarked) [Example 2-41]	213	100 to 500		

Further lines, results first:

melting point [°C]	IC50 [1, 2] [nM]	IC50 [1, 3] [nM]	IC50 [1, 4] [nM]	SMILES
204.3		< 100		O=C(NCc1ccc(C(F)(F)F)cc1)Nc1cccc2c1C[C@H](O)CC2 [Example 4-4, N-{(R)-7-hydroxy-5,6,7,8-tetrahydro-naphthalen-1-yl}-N′-(4-trifluoromethyl-benzyl)-urea]
198 to 200		< 100		O=C(Nc1ccc(OC(F)(F)F)cc1)Nc1cccc2c1CC(O)CC2 (centres unmarked) [Example 5-1, N-(7-hydroxy-5,6,7,8-tetrahydro-naphthalen-1-yl)-N′-(4-trifluoromethoxy-phenyl)-urea]
204 to 205			100 to 500	O=C(Nc1cccc(F)c1)Nc1cccc2c1CC(O)CC2 (centres unmarked) [Example 5-3]
196 to 197			100 to 500	O=C(Nc1ccccc1Br)Nc1cccc2c1CC(O)CC2 (centres unmarked) [Example 5-4]
			< 100	CCOc1ccc(NC(=O)Nc2cccc3c2CC(O)CC3)cc1 (centres unmarked) [Example 5-14]
			500 to 1000	COc1ccc(NC(=O)Nc2cccc3c2CC(O)CC3)cc1O (centres unmarked) [Example 5-15]
			100 to 500	CSc1ccc(NC(=O)Nc2cccc3c2CC(O)CC3)cc1 (centres unmarked) [Example 5-16]
			< 100	COc1ccc(NC(=O)Nc2cccc3c2CC(O)CC3)cc1F (centres unmarked) [Example 5-17]
			100 to 500	COc1ccc(NC(=O)Nc2cccc3c2CC(O)CC3)cc1OC (centres unmarked) [Example 5-18]
			< 100	COc1ccc(NC(=O)Nc2cccc3c2CC(O)CC3)cc1Cl (centres unmarked) [Example 5-19]
			500 to 1000	O=C(Nc1ccc(O)cc1)Nc1cccc2c1CC(O)CC2 (centres unmarked) [Example 5-20]
			< 100	Cc1cc(C)cc(NC(=O)Nc2cccc3c2CC(O)CC3)c1 (centres unmarked) [Example 5-21]
			< 100	Cc1ccc(NC(=O)Nc2cccc3c2CC(O)CC3)cc1C (centres unmarked) [Example 5-22]
			< 100	CCc1cccc(NC(=O)Nc2cccc3c2CC(O)CC3)c1 (centres unmarked) [Example 5-23]
			< 100	Cc1cc(NC(=O)Nc2cccc3c2CC(O)CC3)ccc1F (centres unmarked) [Example 5-24]
